Assay [1] concerns granulocyte-macrophage (CFU-GM), erythroid (BFU-E) and multipotential (CFU-GEMM) progenitor cells. In words: Progenitor/stem cell mobilization in mice after single subcutaneous injection. The assay is classed as in vivo, C3H/HeJ mice. To be noted: Table 8; progenitor cells per mL of blood; 5 mg/kg s.c.; @ - 60″ (1 h).
The test system is the same in assay [2]. The description is as above. The following applies: 5 mg/kg s.c. It is filed as in vivo, C3H/HeJ mice. As to the method: All experiments were performed in […] mice. […] The progenitors were stimulated to form colonies in vitro with the combination of 1 U/mL rhu EPO, 50 ng/mL rmu SLF, 5% vol/vol pokeweed mitogen mouse spleen cell conditioned medium (PWMSCM), and 0.1 mM hemin. Plates were scored 7 days after incubation at 37° C., 5% CO2, lowered […] and in a humidified chamber.
In the first experiment (data shown in Table 6), mice received a dose of 5 mg/kg- and the number of progenitors in the circulating blood was measured at various time points (0.25, 0.5, 1, 2, 6 and 24 hours).

Assay [3] concerns the target T1, E343X CXCR4 variant (Homo sapiens, UniProt P61073).
T1 construct: expressed in transfected cells; host or cells: Cf2Th (canine thymus cell line lacking CXCR4)
The following applies: E343X variant in Cf2Th; read-out: EC50 for SDF-1α, calcium flux; cited from earlier work.

Assay [4] concerns the target T2, wild type CXCR4 (Homo sapiens, UniProt P61073).
T2 construct: expressed in transfected cells; host or cells: Cf2Th (canine thymus cell line lacking CXCR4)
To be noted: wild type CXCR4 in Cf2Th; read-out: EC50 for SDF-1α, calcium flux; cited from earlier work. For orientation: Calcium flux is commonly read through the fluorescence of an indicator in the cells.

Assay [5] deals with T3, R334X CXCR4 variant (Homo sapiens, UniProt P61073).
T3 construct: expressed in transfected cells; host or cells: Cf2Th (canine thymus cell line lacking CXCR4)
The following applies: R334X variant in Cf2Th; read-out: EC50 for SDF-1α, calcium flux; cited from earlier work.

[6] abbreviates: Table 8, @ - 60″ (1 h), vs control.
The mark [7] stands for this setting: Table 8, progenitor cells per mL of blood, @ - 60″ (1 h).
Setting [8] is: comparison, AMD3100 at 1 hour, X4P-001 peak over 0.25-2 hours.

T2 sequence (P61073 whole entry): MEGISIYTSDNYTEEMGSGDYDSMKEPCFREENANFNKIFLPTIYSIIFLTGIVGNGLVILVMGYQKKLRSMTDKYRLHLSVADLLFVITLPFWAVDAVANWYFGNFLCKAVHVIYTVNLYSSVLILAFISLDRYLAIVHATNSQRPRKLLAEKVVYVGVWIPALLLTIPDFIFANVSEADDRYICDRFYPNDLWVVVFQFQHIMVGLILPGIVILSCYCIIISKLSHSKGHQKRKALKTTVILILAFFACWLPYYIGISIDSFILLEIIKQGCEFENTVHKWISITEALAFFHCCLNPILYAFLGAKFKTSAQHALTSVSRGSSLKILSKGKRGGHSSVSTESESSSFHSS

With `c1cc(CN2CCCNCCNCCCNCC2)ccc1CN1CCCNCCNCCCNCC1` [AMD3100, plerixafor, reference compound], the “BFU (BFU-E), Mean” value in assay [1] amounted to 207.7. In addition, in assay [2] (setting [6]), the “BFU (BFU-E), Fold Chg” value came to 3.12 fold; the “GEMM (CFU-GEMM), Fold Chg” value stood at 4.35 fold; the “GM (CFU-GM), Fold Chg” value was 9.11 fold; the “Nucleated Cellularity PBL-LD, Fold Chg” value came out at 1.62 fold. In assay [2] (setting [7]), the “GEMM (CFU-GEMM), Mean” value worked out at 138.5 and the “GM (CFU-GM), Mean” value is reported as 1950.3. In assay [2] (Table 8 comparison, @ - 60″ (1 h)), the “Nucleated Cellularity PBL-LD, Mean” value is 1.008e+07 mL⁻¹. For the same molecule, in assay [2] (setting [8]), the “Maximum fold-increase in BFU-E” value amounted to 3.12 fold, the “Maximum fold-increase in CFU-GEMM” value came out at 4.35 fold and the “Maximum fold-increase in CFU-GM” value was 9.11 fold.

What is called EC50 is the concentration needed to bring the measured effect to its halfway point. SDF-1α: the results for the half-maximal effective concentration (EC50) in assay [3], in assay [4] and in assay [5] were 15.3 nM, 13.6 nM and 11.3 nM, respectively.

Values taken from patent US11219621B2, “Methods for treating immunodeficiency disease” (X4 Pharmaceuticals, Inc., priority 2015, dated 2022).
